Assay results published in ChEMBL document CHEMBL1139558, “Isolation, characterization and antiplasmodial activity of steroidal alkaloids from Funtumia elastica (Preuss) Stapf” (Bioorg Med Chem Lett, 2005).

Legend:
[1] = Cytotoxicity against rat L-6 cell line; type: functional, cell-based; conditions: L6
Rattus norvegicus = species on record: Rattus norvegicus; experiment: Selectivity Index is expressed as the ratio of cytotoxicity (IC50) against rat L-6 cell line to that of antiplasmodial activity (IC50) of chloroquine-resistant strain FcB1 of Plasmodium falciparum; type: functional
Plasmodium falciparum = experiment: In vitro antiplasmodial activity for chloroquine-resistant Plasmodium falciparum FcB1; type: functional, organism-based

| SMILES | IC50 [1] | Selectivity index (Rattus norvegicus) | IC50 (Plasmodium falciparum) |
| --- | --- | --- | --- |
| C[C@H]1[C@H]2CC[C@H]3[C@@H]4CC=C5C[C@@H](N(C)C)CC[C@]5(C)[C@H]4CC[C@]23CN1C [CONESSINE] | 14.6 µM | 14 | 1.04 µM |
| CN[C@H]1CC[C@@]2(C)C(=CC[C@H]3[C@@H]4CC[C@@H]5[C@H](C)N(C)C[C@@]54CC[C@@H]32)C1 [ISOCONESSIMINE] | 36.6 µM | 10.8 | 3.39 µM |
| CC(C)=CCC(=O)O[C@@H]1C[C@H]2[C@@H](CC=C3C[C@@H](N(C)C)CC[C@@]32C)[C@@H]2CC[C@@H]3[C@H](C)N(C)C[C@]312 | 5.13 µM | 4.5 | 1.13 µM |
| CN[C@H]1CC[C@@]2(C)C(=CC[C@H]3[C@@H]4CC[C@@H]5[C@H](C)N(C)C[C@@]54[C@H](OC(=O)CC=C(C)C)C[C@@H]32)C1 | 7.49 µM | 7.7 | 0.97 µM |
